Marks after values point to notes of the source that are not given here. Ends that are not written are not given here.
Legend:
fibrin plate = assay: In vitro fibrinolytic lysis on fibrin plate (fibrinogen-agarose); type: biochemical, rabbit; settings: dosage per well differs per compound (0.8-2.2 μg; UK 5 IU); n = 6; NS control 21.01 ± 9.26
Experimental: The plates were prepared by mixing equal volumes of 0.3% rabbit fibrinogen and 0.95% agarose solutions, both dissolved in 50 mM of barbital buffer (pH 7.8, contained 1.66 mM of CaCl2, 0.68 mM of MgCl2 and 93.96 mM of NaCl)^[6]. The fibrinogen-agarose mixture was coagulated with […] thrombin (100 IU: ml) in the plastic dishes (its diameter is 90 mm and the depth of the fibrin plate is 1 mm). After 30 min at 4° C. an adequate number of wells, 5 mm in diameter, were perforated. To determine fibrinolytic activity […] aliquots of the tested pseudopeptides were added to each well, the plate was incubated, and areas of lysis were quantified as described for the regular fibrin plates.

[1] = tested on: rabbit euglobulin fraction; assay: In vitro euglobulin clot lysis time (ECLT); type: biochemical; settings: dosage differs per compound (1.3-6.7 μg; UK 5 IU); 96 well microtiter plate; n = 6; NS control 200.01 ± 15.26
Experimental: The rabbit euglobulin fraction was prepared according to the literature^[6]. Plasma diluted […] in distilled water was precipitated at pH 5.7 with acetic acid (0.25%). After 30 min at 4° C. the suspension was centrifuged at 2000 g for 15 min and the precipitate was resuspended to the initial plasma volume with 50 mM barbital buffer (pH 7.8, contained 1.66 mM of CaCl2, 0.68 mM of MgCl2 and 93.96 mM of NaCl). Euglobulin clot lysis time (ECLT) of the tested pseudopeptide was measured using a 96 well microtiter plate^[7] and the data are listed in Table 2.

thrombus = assay: In vivo thrombolytic activity, thrombus on steel helix in extracorporeal circulation; settings: male Wistar rats; injected; dose differs per compound (3.1-8.2 mg/kg; UK 20000 IU); blood circulated 90 min; n = 10; NS control 12.31 ± 2.57
Experimental: Male Wistar rats weighing 200–300 g (purchased from Animal Center of Peking University) were anesthetized with pentobarbital sodium (80.0 mg/kg, ip). The right carotid artery and left vein jugular of the animals were separated. To the glass tube filled with artery blood (1.0 ml) from the right carotid artery of the animal a stainless steel filament helix (15 circles; L, 15 mm; D, 1.0 mm) was put immediately. After 15 minutes the helix with thrombus was carefully taken out and weighted exactly, which was put into the middle polyethylene tube. The polyethylene tube was full with heparin sodium (50 IU/ml of NS) and one end was inserted into the left jugular vein. Heparin sodium was injected via the other end of the polyethylene tube as the anticoagulant, following which the tested pseudopeptide was injected. The blood was circulated through the polyethylene tube for 90 min, after which the helix was taken out and weighted accurately.

Row | Substance | Effect of the pseudopeptides on fibrin plate, areas of lysis, x ± SD (fibrin plate) | Euglobulin clot lysis time, x ± SD [1] | The reduction of thrombolytic mass, x ± SD (thrombus)
1 | 3S-1,2,3,4-tetrahydro-β-carboline-3-carboxyl-Ala-Arg-Pro-Ala-Lys-OH (ARPAK-OH; not fully specified (N-terminus); printed as 3S-1,2,3,4-tetrahydro-β-carboline-3-carboxyl-Ala-Arg-Pro-Ala-Lys-OH) [compound 11] | 24.10 ± 10.16 mm^2 | 204.01 ± 32.61 min | 14.01 ± 2.61 mg
2 | 3S-1,2,3,4-tetrahydro-β-carboline-3-carboxyl-Ala-Arg-Pro-Ala-OH (ARPA-OH; not fully specified (N-terminus); printed as 3S-1,2,3,4-tetrahydro-β-carboline-3-carboxyl-Ala-Arg-Pro-Ala-OH) [compound 17] | 23.44 ± 10.18 mm^2 | 213.55 ± 30.47 min | 13.55 ± 2.47 mg
3 | 3S-1,2,3,4-tetrahydro-β-carboline-3-carboxyl-Ala-Arg-Pro-OH [compound 18] | 23.88 ± 10.04 mm^2 | 203.66 ± 30.44 min | 13.66 ± 2.44 mg
4 | 3S-1,2,3,4-tetrahydro-β-carboline-3-carboxyl-Arg-Arg-Pro-Ala-Lys-OH (RRPAK-OH; not fully specified (N-terminus); printed as 3S-1,2,3,4-tetrahydro-β-carboline-3-carboxyl-Arg-Arg-Pro-Ala-Lys-OH) [compound 26] | 24.00 ± 12.01 mm^2 | 214.80 ± 32.96 min | 14.80 ± 2.96 mg
5 | 3S-1,2,3,4-tetrahydro-β-carboline-3-carboxyl-Arg-Pro-Ala-Lys-OH (RPAK-OH; not fully specified (N-terminus); printed as 3S-1,2,3,4-tetrahydro-β-carboline-3-carboxyl-Arg-Pro-Ala-Lys-OH) [compound 19] | 20.33 ± 9.28 mm^2 | 213.56 ± 29.95 min | 13.56 ± 2.45 mg
6 | 3S-1,2,3,4-tetrahydro-β-carboline-3-carboxyl-Asn-Arg-Pro-Ala-Lys-OH (NRPAK-OH; not fully specified (N-terminus); printed as 3S-1,2,3,4-tetrahydro-β-carboline-3-carboxyl-Asn-Arg-Pro-Ala-Lys-OH) [compound 15] | 23.21 ± 9.74 mm^2 | 213.12 ± 29.47 min | 13.12 ± 2.47 mg
7 | 3S-1,2,3,4-tetrahydro-β-carboline-3-carboxyl-Gln-Arg-Pro-Ala-Lys-OH (QRPAK-OH; not fully specified (N-terminus); printed as 3S-1,2,3,4-tetrahydro-β-carboline-3-carboxyl-Gln-Arg-Pro-Ala-Lys-OH) [compound 14] | 22.89 ± 10.02 mm^2 | 212.98 ± 28.42 min | 12.98 ± 2.42 mg
8 | 3S-1,2,3,4-tetrahydro-β-carboline-3-carboxyl-Gly-Arg-Pro-Ala-Lys-OH (GRPAK-OH; not fully specified (N-terminus); printed as 3S-1,2,3,4-tetrahydro-β-carboline-3-carboxyl-Gly-Arg-Pro-Ala-Lys-OH) [compound 12] | 23.53 ± 9.74 mm^2 | 213.35 ± 29.47 min | 13.35 ± 2.47 mg
9 | 3S-1,2,3,4-tetrahydro-β-carboline-3-carboxyl-Lys-Arg-Pro-Ala-Lys-OH (KRPAK-OH; not fully specified (N-terminus); printed as 3S-1,2,3,4-tetrahydro-β-carboline-3-carboxyl-Lys-Arg-Pro-Ala-Lys-OH) [compound 13] | 24.01 ± 10.05 mm^2 | 214.11 ± 32.67 min | 14.11 ± 2.67 mg
10 | 3S-1,2,3,4-tetrahydro-β-carboline-3-carboxyl-Pro-Ala-Lys-OH [compound 20] | 19.41 ± 11.71 mm^2 | 209.31 ± 31.57 min | 13.31 ± 0.0257 mg
11 | 3S-(2-Ala-Arg-Pro)-1,2,3,4-tetrahydro-β-carboline-3-carboxylic acid [compound 28] | 21.21 ± 11.11 mm^2 | 213.23 ± 31.58 min | 13.23 ± 2.58 mg
12 | 3S-(2-Ala-Arg-Pro-Ala)-1,2,3,4-tetrahydro-β-carboline-3-carboxylic acid (ARPA; not fully specified (C-terminus)) [compound 27] | 23.32 ± 9.99 mm^2 | 203.89 ± 29.67 min | 13.89 ± 2.67 mg
13 | 3S-(2-Ala-Arg-Pro-Ala-Lys)-1,2,3,4-tetrahydro-β-carboline-3-carboxylic acid (ARPAK; not fully specified (C-terminus)) [compound 21] | 119.70 ± 10.71^a mm^2 | 119.70 ± 23.71^a min | 19.7 ± 3.71^2) mg
14 | 3S-(2-Arg-Arg-Pro-Ala-Lys)-1,2,3,4-tetrahydro-β-carboline-3-carboxylic acid (RRPAK; not fully specified (C-terminus)) [compound 16] | 24.19 ± 10.08 mm^2 | 204.11 ± 32.87 min | 14.11 ± 2.87 mg
15 | 3S-(2-Arg-Pro-Ala-Lys)-1,2,3,4-tetrahydro-β-carboline-3-carboxylic acid (RPAK; not fully specified (C-terminus)) [compound 29] | 126.55 ± 9.98^a mm^2 | 104.40 ± 27.51^a min | 24.40 ± 2.51^a,d mg
16 | 3S-(2-Asn-Arg-Pro-Ala-Lys)-1,2,3,4-tetrahydro-β-carboline-3-carboxylic acid (NRPAK; not fully specified (C-terminus)) [compound 25] | 20.84 ± 10.77 mm^2 | 217.27 ± 30.57 min | 17.27 ± 3.57^2) mg
17 | 3S-(2-Gln-Arg-Pro-Ala-Lys)-1,2,3,4-tetrahydro-β-carboline-3-carboxylic acid (QRPAK; not fully specified (C-terminus)) [compound 24] | 133.89 ± 9.99^a mm^2 | 96.88 ± 29.21^1a min | 22.88 ± 9.21^1) mg
18 | 3S-(2-Gly-Arg-Pro-Ala-Lys)-1,2,3,4-tetrahydro-β-carboline-3-carboxylic acid (GRPAK; not fully specified (C-terminus)) [compound 22] | 125.90 ± 11.15^a mm^2 | 98.02 ± 25.21^a min | 24.02 ± 5.21^1) mg
19 | 3S-(2-Lys-Arg-Pro-Ala-Lys)-1,2,3,4-tetrahydro-β-carboline-3-carboxylic acid (KRPAK; not fully specified (C-terminus)) [compound 23] | 19.87 ± 9.58 mm^2 | 213.98 ± 29.45 min | 13.98 ± 2.45 mg
20 | 3S-(2-Pro-Ala-Lys)-1,2,3,4-tetrahydro-β-carboline-3-carboxylic acid [compound 30] | 139.39 ± 9.52^a mm^2 | 96.56 ± 30.42^a min | 26.56 ± 2.42^b mg
21 | H-ARPAK-OH [compound 1, H-Ala-Arg-Pro-Ala-Lys-OH] | 119.12 ± 12.44^a mm^2 | 90.12 ± 17.64^a,b min | 18.84 ± 3.18^1)2) mg
22 | H-Ala-Arg-Pro-Ala-OH (H-ARPA-OH) [compound 10] | 31.01 ± 9.26 mm^2 | 214.01 ± 28.26 min | 14.01 ± 2.26 mg

From patent US7138491B2, “Carboline-3-carboxylic acid modified related sequences of Ala-Arg-Pro-Ala-Lys, their synthesis and use as thromobolytic agent” (Guangzhou Bai Yun Shan Pharmaceutical Co., Ltd., priority 2003, dated 2006)
